Assay in all cases: NCI anticancer screen, dose series, 48 h
Test [1] relates to DMS-114.
In test [2] the test system is DMS-273.
Test [3] deals with KM-20L2.
Test [4] relates to HOP-18.
For test [5], the system named is SNB-78.
Test [6] concerns DLD-1.
Test [7] relates to RXF 631.
In test [8] the test system is LXFL 529.
For test [9], the system named is XF498.

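Five concentrations, 48 hours, 96-well plates. GI50 is the concentration that inhibits growth by half.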 Active and inactive are the calls of the source. Rule as the data show it: active = GI50 up to about 1.1 µM and inactive = higher.

With `Cc1nc(-n2nc(-c3ccccc3)cc2-c2ccccc2)sc1C(=O)/C=C/c1ccc(Cl)cc1`, the GI50 was 11.4 µM (inactive) in test [1]; 28.5 µM (inactive) in test [2]; 24.4 µM (inactive) in [3]; 14.4 µM (inactive) in test [4]; 46 µM (inactive) in [5]; 13.2 µM (inactive) in [6].
Turning to `CCOC(=O)C(=O)C1C(=O)Nc2ccccc21` (stereo not given), the GI50 in test [1], in test [2], in test [7], in test [8], in [9] and in [6] was > 100 µM (inactive) in each case.
Take `COc1ccc(CC2NCCc3cc(OC)c(OC)cc32)cc1Br` (stereo not given): the GI50 in [1] was 17.6 µM (inactive); in [2], 22.4 µM (inactive); in test [3], 25.8 µM (inactive); in [8], 26.9 µM (inactive); in test [9], 11.9 µM (inactive); in test [4], 23.1 µM (inactive). The GI50 was 42.4 µM (inactive) in [5] and 66.7 µM (inactive) in test [6].
With `Nc1nc(F)nc2c1ncn2C1OC(COP(=O)(O)O)C(O)C1O` (stereo not given), the GI50 in test [1] is 10.7 µM (inactive); in test [2], 225 µM (inactive); in [3] it was 105 µM (inactive); in [9], 66.8 µM (inactive); in test [4] it was 63.2 µM (inactive); in test [5] it was 186 µM (inactive). In addition, in [6], the GI50 is 101 µM (inactive).
For `COc1cc2c(c(OC)c1OC)-c1ccc(SC)c(=O)cc1C(CO)C2` (stereo not given), the GI50 was 0.0791 µM (active) in [1]; 0.0614 µM (active) in [2]; < 0.01 µM (active) in [7]; 0.157 µM (active) in test [3]; 0.136 µM (active) in test [8]; 0.149 µM (active) in test [9]. In addition, the GI50 was 24.8 µM (inactive) in [4], 0.0966 µM (active) in test [5] and 0.169 µM (active) in test [6].
For the molecule `CN(C)[C@H]1CC[C@H]2[C@@H]3CCC4C[C@@H](NC(=O)NC(Cc5ccccc5)c5nccs5)CC[C@]4(C)[C@H]3CC[C@]12C` (stereo not given in full), the GI50 in test [1] was 1.79 µM (inactive); in test [2], 1.94 µM (inactive); in test [7] it was 1.92 µM (inactive); in test [3], 1.19 µM (inactive); in test [8], 0.488 µM (active); in test [9], 1.2 µM (inactive). Moreover, in [6], the GI50 was 1.74 µM (inactive).
Take `CCCCCC1CC=CC(NC(=O)OCc2ccccc2)C1/C=C/CCCC1OCCO1` (stereo not given): the GI50 in test [1] was 21.4 µM (inactive); in [2], 36.2 µM (inactive); in test [7] it was 48.3 µM (inactive); in test [3], > 100 µM (inactive); in test [8], 40.6 µM (inactive); in test [9], 52 µM (inactive). Further, the GI50 is > 100 µM (inactive) in test [4], > 100 µM (inactive) in [5] and > 66.5 µM (inactive) in test [6].
In the case of `[N-]=[N+]=NC(c1cn(C2CC(O)C(CO)O2)c(=O)[nH]c1=O)C(I)I` (stereo not given), the GI50 in test [1] was > 100 µM (inactive); in test [2], > 100 µM (inactive); in test [3], > 100 µM (inactive); in test [8] it was > 100 µM (inactive); in [4] it was 2.23 µM (inactive); in test [5], > 100 µM (inactive). Moreover, the GI50 in test [6] was > 100 µM (inactive).
On to `O=CC(O)C(O)C(O)COc1cc(CO)cc2c1C(=O)c1ccccc1C2=O` (stereo not given), for which the GI50 is > 89.5 µM (inactive) in test [1]; > 100 µM (inactive) in [2]; > 100 µM (inactive) in test [7]; > 100 µM (inactive) in test [3]; > 100 µM (inactive) in test [8]; > 100 µM (inactive) in test [9]. The GI50 in test [4], in test [5] and in [6] was > 100 µM (inactive) in each case.
On to `C/C(=N\NC(=O)c1ccccc1O)C1=CNc2ccccc2S1`, for which the GI50 in [2] is 3.1 µM (inactive); in test [3], 15.7 µM (inactive); in test [8] it was 0.875 µM (active); in test [9] it was 3.99 µM (inactive); in test [4] it was 6.25 µM (inactive); in test [5], 7.94 µM (inactive). The GI50 in test [6] is 4.23 µM (inactive).
On to `Cn1ncc(=S)[nH]c1=S`, for which the GI50 in [1], in test [2], in [7], in test [3], in [8] and in [9] was > 100 µM (inactive) in each case. The GI50 in test [4] is 47.6 µM (inactive); in [5], > 100 µM (inactive); in test [6], > 100 µM (inactive).
With `CN(C)C(=N)NC(N)=S`, the GI50 in test [1], in test [2], in test [7], in test [3], in test [8] and in [9] was > 100 µM (inactive) each time. In addition, the GI50 in test [4], in [5] and in [6] was > 100 µM (inactive) each time.
For the molecule `COc1ccc(N2C(=O)c3c(c4[nH]c5ccccc5c4c4ccc(C(C)(C)C)cc34)C2=O)cc1`, the GI50 in test [1] was > 100 µM (inactive); in [2], 41.3 µM (inactive); in test [7] it was 40.6 µM (inactive); in test [3], > 100 µM (inactive); in [8], 78.5 µM (inactive); in test [9], 20.7 µM (inactive). For the same molecule, the GI50 was 58.1 µM (inactive) in test [4], 25.7 µM (inactive) in test [5] and > 100 µM (inactive) in [6].
Take `Cc1ccc(S(=O)(=O)NNS(C)(=O)=O)cc1`: the GI50 in [1], in [2], in test [3], in test [8] and in test [6] was > 100 µM (inactive) in each case.
With `CCOc1ccccc1NC(=O)CCc1n[nH]c(=S)o1`, the GI50 in test [2], in [3], in test [8], in [9], in [5] and in test [6] was > 100 µM (inactive) each time.
Consider `CC(=O)c1cccc(NC(=O)C(=O)NNc2nnc(S)n2N)c1`, for which the GI50 in [1] is 1.85 µM (inactive); in test [2] it was 5.55 µM (inactive); in test [7], 3.01 µM (inactive); in test [3], 14.1 µM (inactive); in [8], 10.7 µM (inactive); in test [9] it was 12.7 µM (inactive). Further, the GI50 in test [4] is 11.8 µM (inactive); in [5] it was 11.3 µM (inactive); in test [6] it was 7.38 µM (inactive).
Turning to `O=c1[nH]c2c(nc1NC13CC4CC(CC(C4)C1)C3)c(=O)oc1ccccc12`, the GI50 is > 100 µM (inactive) in test [1]; 62.1 µM (inactive) in test [2]; > 100 µM (inactive) in test [3]; > 100 µM (inactive) in [8]; > 100 µM (inactive) in test [9]; 23.8 µM (inactive) in [6].
For the molecule `CCOC(=O)C1Oc2ccc([N+](=O)[O-])cc2C1(C)O` (stereo not given), the GI50 in test [1], in test [2], in test [8], in test [9], in test [5] and in [6] was > 100 µM (inactive) each time.
Take `CCOC(OC1=C(C#N)CCC1)C(CC)[Se]c1ccccc1` (stereo not given): the GI50 in test [1] is 3.1 µM (inactive); in test [2], 11.2 µM (inactive); in test [3], 26.1 µM (inactive); in test [8], 16.5 µM (inactive); in [9], 24.9 µM (inactive); in [4], 27.2 µM (inactive). Besides, the GI50 in test [5] is 29.3 µM (inactive); in test [6] it was 19.6 µM (inactive).
In the case of `C=CCOC1=C2CC[C@H](O)[C@@]2(C)CCC1=O`, the GI50 in test [1], in [2], in [3], in test [8], in [4] and in [5] was > 100 µM (inactive) each time. Moreover, the GI50 in [6] is > 100 µM (inactive).
With `O=S1(=O)c2ccccc2N=C(c2ccccc2Cl)CC1c1ccc(F)cc1` (stereo not given), the GI50 is 19.7 µM (inactive) in test [1]; 22.3 µM (inactive) in test [2]; 18.6 µM (inactive) in test [3]; 17.8 µM (inactive) in test [8]; 15.6 µM (inactive) in [9]; 9.62 µM (inactive) in test [4]. Besides, the results for the GI50 in [5] and in test [6] were 19.1 µM (inactive) and 15.2 µM (inactive), respectively.
`Cc1noc(C)c1C1=CCCCc2ccccc21`: the GI50 was > 100 µM (inactive) in test [1]; > 100 µM (inactive) in [2]; > 100 µM (inactive) in test [3]; 85.5 µM (inactive) in test [8]; > 100 µM (inactive) in test [4]; > 100 µM (inactive) in [5]. Besides, in [6], the GI50 was > 100 µM (inactive).
`CC1=Nn2c(nnc2-c2ccccc2Cl)NC(C)(C)C1`: the GI50 in [2] was > 100 µM (inactive); in test [3], > 100 µM (inactive); in test [8] it was 63.7 µM (inactive); in test [9], > 100 µM (inactive); in [5], > 100 µM (inactive); in [6], 54.7 µM (inactive).

The record behind these values is ChEMBL document CHEMBL1201862, “PubChem BioAssay data set” (2004).
